Test results taken from patent US7064120B2, “Tricyclic pyridyl carboxamides and derivatives thereof tocolytic oxytocin receptor antagonists” (Wyeth, priority 2001, dated 2006).

Target: T1, human oxytocin receptor (Homo sapiens, UniProt P30559)
T1 construct: host or cells: CHO cells, stably transfected (pcDNA3.1 vector)
T1 sequence (P30559 1-389): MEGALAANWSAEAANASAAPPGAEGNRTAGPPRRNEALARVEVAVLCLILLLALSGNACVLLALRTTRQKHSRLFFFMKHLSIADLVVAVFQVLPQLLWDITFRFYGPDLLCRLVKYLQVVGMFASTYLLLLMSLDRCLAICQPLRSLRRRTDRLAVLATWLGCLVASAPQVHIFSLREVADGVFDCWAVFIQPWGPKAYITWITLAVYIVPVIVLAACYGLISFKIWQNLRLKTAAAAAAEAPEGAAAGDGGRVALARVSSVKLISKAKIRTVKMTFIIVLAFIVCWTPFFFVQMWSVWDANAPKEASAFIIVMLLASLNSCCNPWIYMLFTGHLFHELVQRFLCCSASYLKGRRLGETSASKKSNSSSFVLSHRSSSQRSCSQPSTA
Assay: Oxytocin binding in CHO cell membranes expressing human oxytocin receptors ([3H]oxytocin radioligand binding)
Settings: 100 nM, read-out: OT % inhibition @ 100 nM
Protocol: Oxytocin Binding in Chinese Hamster Ovary Cell Membranes Expressing Human Oxytocin Receptors
Cell Culture medium (e.g. 30 mL for 1:30 split) is immediately added and mixed well to inactivate trypsin. 1 mL of detached cells is added to new culture flasks containing fresh Cell Culture medium (e.g. into 25 mL per T-150 flask), and mixed gently. The cells are incubated at 37° C. in 5% CO2. The medium is changed at 3 to 4 days interval (or as appropriate). […] All steps are done under sterile conditions.
The cells are washed twice gently with Hank's Balanced Salt solution (e.g., use 10 mL per T-150 flask). […] The contents are transferred to centrifuge tubes (50 mL size) kept in ice bath. All subsequent steps are done at 4° C. The tubes are centrifuged at 300×g for 15 min (1380 rpm on SORVAL, Model RT6000D, using rotor for 50 mL tubes). The supernatant is discarded and the cells suspended in homogenizing buffer (10 mM Tris-HCl containing 0.25 M sucrose and 1 mM EDTA, pH 7.4) ensuring that the volume of the buffer is about ten times the volume of the cell pellet. The cells are pooled into a centrifuge tube (50 mL) and homogenized with a Polytron at setting 6 for 10 sec. The homogenate is transferred into a Potter-Elvjehm homogenizer and homogenized with 3 strokes. The homogenate is centrifuged at 1500×g for 10 min at 4° C. (3100 rpm using SORVAL, model RT6000D, using a rotor for 50 mL tubes). The pellet is discarded. The supernatant is centrifuged at 100,000×g for 60 min. at 4° C. (Beckman L8-80M ultracentrifuge; spin at 37,500 rpm with rotor type 70 Ti for 50 mL tubes; 38,000 rpm with rotor type 8OTi for 15 mL tubes; or 35,800 rpm with rotor type 45Ti). The supernantant is discarded and the pellet suspended in 3 to 4 mL of Tris buffer (50 mM TRIS-HCl, pH 7.4). The protein content is estimated by the Bradford or Lowry method. The volume of the membrane suspension is adjusted with the membrane buffer (50 mM Tris-HCl containing 0.1% BSA and 0.1 mM PMSF) to give 3.0 mg/mL (or as appropriate) of protein. The membranes are aliquoted and stored at −70° C.
In wells of a 96-well format microtiter plate, is added 90, 110 or 130 μL (to make up a final volume of 200 μL) of assay buffer containing 50 mM of Tris-HCl (pH 7.4), […], 1 mg % aprotinin, 1 mg % leupeptin, 2 mg % 1,10-phenanthroline, 10 mg % trypsin inhibitor, and 0.1 mM PMSF. The inhibitors are added on the day of the experiment. The components are mixed at room temperature, and then kept in ice bath following adjustment of the pH to 7.4. […] For oxytocin and other peptide ligands, 20 μL of 50% DMSO is added and the assay buffer volume is adjusted accordingly. To each well is added 50 μL of frozen membrane suspension thawed immediately prior to use and diluted in assay buffer to the required concentration (equivalent to 25 to 50 μg of protein/well as needed). 20 μL of 8 nM [^3H]oxytocin in the assay buffer, prepared just before use is added and incubated at room temperature for 60 min. shaking the plate on a mechanical shaker for the first 15 min. The incubation is stopped by rapid filtration of the plate contents followed by washing with ice-cold buffer (50 mM Tris-HCl, pH 7.4) using a cell harvester (Tomtek and Printed filtermat-B filter paper). The filter paper is thoroughly dried (7–12 min. in a microwave oven) and impregnated with MeltiLex B/H melt-on scintillation wax sheets and the radioactivity counted in a betaplate scintillation counter.
Binding data is either reported as percent inhibition at a certain concentration or if an IC50 was calculated, as a nanomolar concentration.

Row | inhibition at 0.1 µM [%] | SMILES
1 | 50 | COc1ccccc1-c1ccc(C(=O)N2Cc3ccc(C(=O)NCc4ccccn4)n3Cc3ccccc32)cc1C [Example 24, 10-[(2′-Methoxy-2-methyl-[1,1′-biphenyl]-4-yl)carbonyl]-N-(2-pyridinylmethyl)-10,11-dihydro-5H-pyrrolo[2,1-c][1,4]benzodiazepine-3-carboxamide]
2 | 50 | COc1cccc(-c2ccc(C(=O)N3Cc4ccc(C(=O)NCc5ccccn5)n4Cc4ccccc43)cc2C)c1 [Example 25, 10-[(3′-Methoxy-2-methyl-[1,1′-biphenyl]-4-yl)carbonyl]-N-(2-pyridinylmethyl)-10,11-dihydro-5H-pyrrolo[2,1-c][1,4]benzodiazepine-3-carboxamide]
3 | 47 | COc1ccccc1-c1ccc(C(=O)N2Cc3ccc(C(=O)NCc4ccccn4)n3Cc3ccccc32)cc1 [Example 26, 10-[(2′-Methoxy-[1,1′-biphenyl]-4-yl)carbonyl]-N-(2-pyridinylmethyl)-10,11-dihydro-5H-pyrrolo[2,1-c][1,4]benzodiazepine-3-carboxamide]
4 | 22 | Cc1ccccc1-c1ccc(C(=O)N2Cc3ccc(C(=O)NCc4ccccn4)n3Cc3ccccc32)cc1 [Example 27, 10-[(2′-Methyl-[1,1′-biphenyl]-4-yl)carbonyl]-N-(2-pyridinylmethyl)-10,11-dihydro-5H-pyrrolo[2,1-c][1,4]benzodiazepine-3-carboxamide]
5 | 50 | COc1cc(C(=O)N2Cc3ccc(C(=O)NCc4ccccn4)n3Cc3ccccc32)ccc1-c1ccccc1C [Example 28, 10-[(2-Methoxy-2′-methyl-[1,1′-biphenyl]-4-yl)carbonyl]-N-(2-pyridinylmethyl)-10,11-dihydro-5H-pyrrolo[2,1-c][1,4]benzodiazepine-3-carboxamide]
6 | 42 | COc1cc(-c2ccccc2C)c(Cl)cc1C(=O)N1Cc2ccc(C(=O)NCc3ccccn3)n2Cc2ccccc21 [Example 29, 10-[(6-Chloro-3-methoxy-2′-methyl-[1,1′-biphenyl]-4-yl)carbonyl]-N-(2-pyridinylmethyl)-10,11-dihydro-5H-pyrrolo[2,1-c][1,4]benzodiazepine-3-carboxamide]
7 | 25 | COc1cccc(-c2cc(OC)c(C(=O)N3Cc4ccc(C(=O)NCc5ccccn5)n4Cc4ccccc43)cc2Cl)c1 [Example 30, 10-[(6-Chloro-3,3′-dimethoxy-[1,1′-biphenyl]-4-yl)carbonyl]-N-(2-pyridinylmethyl)-10,11-dihydro-5H-pyrrolo[2,1-c][1,4]benzodiazepine-3-carboxamide]
8 | 18 | COc1cc(C(=O)N2Cc3ccc(C(=O)NCc4ccccn4)n3Cc3ccccc32)ccc1-c1cccc2ccccc12 [Example 31, 10-[3-Methoxy-4-(naphthalen-1-yl)benzoyl]-N-(2-pyridinylmethyl)-10,11-dihydro-5H-pyrrolo[2,1-c][1,4]benzodiazepine-3-carboxamide]
9 | 47 | COc1ccccc1-c1ccc(C(=O)N2Cc3ccc(C(=O)NCc4ccccn4)n3Cc3ccccc32)cc1OC [Example 32, 10-[(2,2′-Dimethoxy-[1,1′-biphenyl]-4-yl)carbonyl]-N-(2-pyridinylmethyl)-10,11-dihydro-5H-pyrrolo[2,1-c][1,4]benzodiazepine-3-carboxamide]
10 | 42 | COc1cccc(-c2ccc(C(=O)N3Cc4ccc(C(=O)NCc5ccccn5)n4Cc4ccccc43)cc2OC)c1 [Example 33, 10-[(2,3′-Dimethoxy-[1,1′-biphenyl]-4-yl)carbonyl]-N-(2-pyridinylmethyl)-10,11-dihydro-5H-pyrrolo[2,1-c][1,4]benzodiazepine-3-carboxamide]
11 | 5 | O=C(NCc1ccccn1)c1ccc2n1Cc1ccccc1N(C(=O)c1ccc(-c3cccc4ccccc34)cc1Cl)C2 [Example 34, 10-[2-Chloro-4-(naphthalen-1-yl)benzoyl]-N-(2-pyridinylmethyl)-10,11-dihydro-5H-pyrrolo[2,1-c][1,4]benzodiazepine-3-carboxamide]
12 | 27 | Cc1cc(C(=O)N2Cc3ccc(C(=O)NCc4ccccn4)n3Cc3ccccc32)ccc1-c1ccccc1C(F)(F)F [Example 35, 10-{[2-Methyl-2′-trifluoromethyl-[1,1′-biphenyl]-4-yl]carbonyl}-N-(2-pyridinylmethyl)-10,11-dihydro-5H-pyrrolo[2,1-c][1,4]benzodiazepine-3-carboxamide]
13 | 46 | COc1ccccc1-c1ccc(C(=O)N2Cc3ccc(C(=O)NCc4cccnc4)n3Cc3ccccc32)cc1C [Example 36, 10-[(2′-Methoxy-2-methyl-[1,1′-biphenyl]-4-yl)carbonyl]-N-(3-pyridinylmethyl)-10,11-dihydro-5H-pyrrolo[2,1-c][1,4]benzodiazepine-3-carboxamide]
14 | 60 | Cc1ccccc1-c1ccc(C(=O)N2Cc3ccc(C(=O)NCc4cccnc4)n3Cc3ccccc32)cc1C [Example 37, 10-[(2,2′-Dimethyl-[1,1′-biphenyl]-4-yl)carbonyl]-N-(3-pyridinylmethyl)-10,11-dihydro-5H-pyrrolo[2,1-c][1,4]benzodiazepine-3-carboxamide]
15 | 26 | COc1cccc(-c2ccc(C(=O)N3Cc4ccc(C(=O)NCc5cccnc5)n4Cc4ccccc43)cc2C)c1 [Example 38, 10-[(3′-Methoxy-2-methyl-[1,1′-biphenyl]-4-yl)carbonyl]-N-(3-pyridinylmethyl)-10,11-dihydro-5H-pyrrolo[2,1-c][1,4]benzodiazepine-3-carboxamide]
16 | 35 | COc1ccccc1-c1ccc(C(=O)N2Cc3ccc(C(=O)NCc4cccnc4)n3Cc3ccccc32)cc1 [Example 39, 10-[(2′-Methoxy-[1,1′-biphenyl]-4-yl)carbonyl]-N-(3-pyridinylmethyl)-10,11-dihydro-5H-pyrrolo[2,1-c][1,4]benzodiazepine-3-carboxamide]
17 | 17 | Cc1ccccc1-c1ccc(C(=O)N2Cc3ccc(C(=O)NCc4cccnc4)n3Cc3ccccc32)cc1 [Example 40, 10-[(2′-Methyl-[1,1′-biphenyl]-4-yl)carbonyl]-N-(3-pyridinylmethyl)-10,11-dihydro-5H-pyrrolo[2,1-c][1,4]benzodiazepine-3-carboxamide]
18 | 41 | COc1cc(C(=O)N2Cc3ccc(C(=O)NCc4cccnc4)n3Cc3ccccc32)ccc1-c1ccccc1C [Example 41, 10-[(2-Methoxy-2′-methyl-[1,1′-biphenyl]-4-yl)carbonyl]-N-(3-pyridinylmethyl)-10,11-dihydro-5H-pyrrolo[2,1-c][1,4]benzodiazepine-3-carboxamide]
19 | 33 | COc1cc(-c2ccccc2C)c(Cl)cc1C(=O)N1Cc2ccc(C(=O)NCc3cccnc3)n2Cc2ccccc21 [Example 42, 10-[(6-Chloro-3-methoxy-2′-methyl-[1,1′-biphenyl]-4-yl)carbonyl]-N-(3-pyridinylmethyl)-10,11-dihydro-5H-pyrrolo[2,1-c][1,4]benzodiazepine-3-carboxamide]
